The values that follow come from EPA's ToxRefDB 2.

Structures are written as SMILES.

Data set [1] relates to rabbit. Particulars: Prenatal developmental toxicity study, himalayan, Inhalation, Whole-Body, dose end: 19 GD.
The test system of data set [2] is rat. The settings on record: Prenatal developmental toxicity study; long evans; Inhalation; Whole-Body; dose end: 15 GD; group: developmental; systemic / in life observation / body weight / fetal weight.
Data set [3] concerns mouse. The settings on record: Carcinogenicity; cd1; Inhalation; Whole-Body; dose end: 18 month; group: systemic; systemic / pathology microscopic / liver / hemosiderosis + systemic / pathology microscopic / liver / hyperplasia + systemic / pathology ….
[4] abbreviates: group: developmental, developmental / developmental malformation / bone / bipartite ossification + developmental / developmental malformation / bone / fused + ….
The mark [5] stands for this setting: group: maternal, systemic / in life observation / body weight / body weight.

For `CN(C)C=O` [N,N-Dimethylformamide], the LEL in data set [1] (setting [4]) was found to be 450 ppm; in data set [1] (setting [5]) it was 450 ppm; in data set [2], 172 ppm; in data set [3], 25 ppm. Besides, the LOAEL (commonly the lowest dose or exposure tested at which an adverse effect was seen) in data set [1] (setting [4]) was > 450 ppm; in data set [1] (setting [5]), > 450 ppm; in data set [2] it was > 172 ppm; in data set [3], > 400 ppm. In addition, the NEL in data set [1] (setting [4]) is 150 ppm; in data set [1] (setting [5]), 150 ppm; in data set [2], 18 ppm; in data set [3], < 25 ppm. Also, the NOAEL (as a rule, the highest tested level that showed no adverse finding) in data set [1] (setting [4]) is ≥ 450 ppm; in data set [1] (setting [5]), ≥ 450 ppm; in data set [2], ≥ 172 ppm; in data set [3], ≥ 400 ppm.
